Laboratory results from patent US4659716A, “Antihistaminic 8-(halo)-substituted 6,11-dihydro-11-(4-piperidylidene)-5H-benzo[5,6]cyclohepta[1,2-b]pyridin es” (Schering Corporation, priority 1986, dated 1987).

What was measured:
[1] = tested on: behavior, neurologic function and autonomic function in mice; conditions: po; score of 2 or greater in at least 3 of 6 animals
Text: A semiquantitative scoring scale was used where signs normally present (e.g., spontaneous activity, alertness, pupil size) were assigned a "normal" score of 0 and scores of +1, +2 and +3 indicated slight, moderate and marked increases and scores of -1, -2 and -3 indicated slight, moderate and marked decreases from "normality". When a sign occurred that is not normally present (e.g., convulsions, tremors), its magnitude was graded on a 1-3 scale. Each treatment group consisted of 6 animals and evaluations were conducted 1 hour after dosing. Additional observations for lethality were made for up to 24 hours after dosing. Incidence is defined as the observation occurring in an animal with a score of 2 or greater according to the scoring method defined above.
^a Minimal effective dose, defined as the lowest dose that produced a

[2] = tested on: histamine-induced paw edema; assay: Histamine-induced paw edema in mice (oral); assay type: in vivo, mice (male CF1)
Experimental: For example, the ability of the compounds to reduce histamine-induced paw edema in mice may be measured by use of the following method.
Male CF1 mice, 25-30 g, are housed under conditions of controlled temperature and humidity with a 12 hour dark/light cycle. Food and water are allowed ad libitum. The mice are randomly assigned to the treatment groups. One hour after treatment with a compound of the invention or vehicle, the mice are lightly anesthetized with ether. The left hind paw of each mouse serves as a control and is injected with 25 μl of isotonic saline. The right hind paw serves as the experimental paw and is injected with 25 μl of isotonic saline containing 13 μg histamine dihydrochloride. Thirty minutes later the mice are killed by cervical dislocation and both hind paws of each mouse are removed by cutting at the tarsal joint. The weight of each paw is recorded and the difference in weight between the compound-treated and the placebo-treated groups is evaluated using Student's "t" test. The ED50 values (the dose causing 50% inhibition of histamine-induced edema) and 95% confidence limits are determind by the Linear Least Square Dose-Response method [Brownlee, K. A., "Statistical Theory And Methodology In Science and Engineering", 2nd Ed., J. Wiley and Sons, New York, 1965, pp. 346-349].

[3] = Toxicity (no method given); conditions: in vivo
CNS activity = assay: CNS test procedures B, C and D taken together; assay type: in vivo, mice; conditions: oral
Experimental: C. […] Mice were injected with 0.6% aqueous acetic acid at 10 mg/kg i.p. 15 minutes after oral administration of the test drug. The number of writhes for each animal was counted during a 10 minute period starting 3 minutes after acetic acid treatment. A writhe was defined as a sequence of arching of the back, pelvic rotation and hind limb extension.
One hour after oral administration of the test drug or vehicle, mice were administered a 13 mA, 60 cycle a.c. electroconvulsant shock (ECS) for 0.2 seconds via corneal electrodes.

[4] = tested on: histamine-induced lethality; assay: Prevention of histamine-induced lethality in guinea pigs (A); assay type: in vivo, guinea pigs (female albino); conditions: Cavia porcellus; oral, 1 hour prior to i.v. histamine 1.1 mg/kg; read-out: Antihistaminic Activity, A. G. pig. p.o. ED50
Experimental: A. Prevention of histamine-induced lethality in guinea pigs. […] Doses of the antagonists were administered orally to separate groups of fasted animals 1 hour prior to the challenge with histamine and protection from death recorded for 30 minutes after histamine. ED50 values were determined for each drug by […].

[5] = Antagonism of physostigmine lethality (B); assay type: in vivo, mice; conditions: mouse, physostigmine-induced lethality; oral, unit inferred; read-out: ED50 in the physostigmine-induced lethality test
Experimental: B. Antagonism of Physostigmine Lethality. […] Physostigmine salicylate (b 1.0 mg/kg s.c.) produces 100% lethality when administered to mice grouped 10 per plastic cage (11×26×13 cm). Test agents were administered orally 30 minutes prior to physostigmine. The number of survivors were counted 20 minutes after physostigmine administration.

| SMILES | MED, Lethality [1] [mg/kg] | Increased Paw Weight, Mean ([2]; oral dose 0.03 mg/kg, 8 animals) [mg] | Increased Paw Weight, Mean ([2]; oral dose 0.1 mg/kg, 7 animals) [mg] | Increased Paw Weight, Mean ([2]; oral dose 0.3 mg/kg, 8 animals) [mg] | Increased Paw Weight, Mean ([2]; oral dose 1.0 mg/kg, 8 animals) [mg] | Toxicity [3] | Activity in all of the CNS test procedures (CNS activity) | ED50 ([2]; Mus musculus, po, 1 h) [mg/kg] | ED50 [4] [mg/kg] | ED50 [5] [mg/kg] |
| --- | --- | --- | --- | --- | --- | --- | --- | --- | --- | --- |
| Clc1ccc2c(c1)CCc1cccnc1C2=C1CCNCC1 [Compound A, 8-chloro-6,11-dihydro-11-(4-piperidylidene)-5H-benzo[5,6]cyclohepta[1,2-b]pyridine] | 300 | 19.9 | 13.0 | 6.1 | 2.5 | – | – | – | – | – |
| Fc1ccc2c(c1)CCc1cccnc1C2=C1CCNCC1 [Compound B, 8-fluoro-6,11-dihydro-11-(4-piperidylidene)-5H-benzo[5,6]cyclohepta[1,2-b]pyridine] | – | – | – | – | – | very low toxicity | relatively inactive | < 3 | 0.09 | > 320 |
